“And” between values parts separate entries of the source, which are not always exact repeats. Equal values may be shown once.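 Grown in 96-well plates, cells were treated for 48 hours with each compound at five concentrations. Insufficient inhibition: endpoint recorded as highest concentration tested. GI50 marks 50% less growth. The concentration for full growth arrest is given as TGI.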
Tests used:
Experiment in all cases: NCI-60 cell line screen, 48 h
HCC-2998 colon = tested on: HCC-2998 colon
RPMI-8226 leukemia = tested on: RPMI-8226 leukemia
SK-OV-3 ovarian = tested on: SK-OV-3 ovarian
T-47D breast = tested on: T-47D breast
LOX IMVI melanoma = tested on: LOX IMVI melanoma
SW-620 colon = tested on: SW-620 colon
NCI-H460 lung = tested on: NCI-H460 lung
CCRF-CEM leukemia = tested on: CCRF-CEM leukemia
OVCAR-4 ovarian = tested on: OVCAR-4 ovarian
HCT-15 colon = tested on: HCT-15 colon

Structure (SMILES)	TGI (HCC-2998 colon) [µM]	TGI (RPMI-8226 leukemia) [µM]	TGI (SK-OV-3 ovarian) [µM]	TGI (T-47D breast) [µM]	TGI (LOX IMVI melanoma)	TGI (SW-620 colon)	TGI (NCI-H460 lung) [µM]	TGI (CCRF-CEM leukemia) [µM]	TGI (OVCAR-4 ovarian)	TGI (HCT-15 colon)	GI50 (HCC-2998 colon)	GI50 (RPMI-8226 leukemia)	GI50 (SK-OV-3 ovarian) [µM]	GI50 (T-47D breast) [µM]	GI50 (LOX IMVI melanoma) [µM]	GI50 (SW-620 colon) [µM]	GI50 (NCI-H460 lung) [µM]	GI50 (CCRF-CEM leukemia) [µM]	GI50 (OVCAR-4 ovarian) [µM]	GI50 (HCT-15 colon)
CN(C)CCNC(=O)Cn1ccc(=O)c2c([N+](=O)[O-])cccc21	> 100	> 100	> 100	> 100	> 100 µM	> 100 µM	> 100	> 100	> 100 µM	> 100 µM										
CC(NC(=O)N(C)C)NC(=O)N(C)C	> 10	> 10	> 10	> 10	> 10 µM	> 10 µM	> 10	> 10	> 10 µM	> 10 µM										
Cc1ccc(NC(=O)c2cc(S(=O)(=O)N3C(=O)NC(=O)NS3(=O)=O)c(S)cc2Cl)cc1	60.5	73.6	> 100	81.3	56.1 µM	> 100 µM	> 100	40.3	> 100 µM	> 100 µM	28.5 µM	22 µM	67.8	21.4	20.7	31.6	29.4	15.9	47.6	33.2 µM
COc1cc(NCCCCCCCNC(C)C)c2nccc(C)c2c1	19	20.4	27.1	19.8	21.5 µM	28.6 µM	27.5	33	15.6 µM	27.3 µM	6.29 µM	4.79 µM	13.7	5.44	7.03	12.6	12.2	12.1	4.08	12.2 µM
O=c1c(F)cn(Cc2ccccc2CCl)c(=O)n1Cc1ccccc1CCl	4.47	8.46	15.1	4.11	2.78 µM	3.73 µM	4.9	3.5	12.8 µM	4.45 µM	2.09 µM	0.795 µM	5.88	1.57	1.23	1.45	2.08	1.04	3.5	1.83 µM
Nc1ccc(/C=C/C(=O)NCc2cc3cc(-c4ccc(C(=O)N5CCC(F)(F)CC5)cc4)cc(-c4ccc(F)cc4)c3o2)cn1	> 100	> 100	> 100	> 100	> 100 µM	> 100 µM	> 100	> 100	> 100 µM	> 100 µM	10.5 µM	0.563 µM	> 100	0.784	> 77.5	0.0571	10.9	0.083	> 71.5	0.679 µM
COc1ccc(OC)c(Cn2cc3c(c2-c2ccccc2)CCc2cnoc2-3)c1	> 100	> 100	> 100	> 100	> 100 µM	> 100 µM	> 100	> 100	> 100 µM	> 100 µM	8.83 µM	6.54 µM	7.48	18.1	4.92	3.69	3.3	4.48	11.3	4 µM
C=C1C(=O)O[C@H]2[C@H]1CC/C(C=Nc1c(N)cc(C(F)(F)F)cc1Br)=C\CC[C@@]1(C)O[C@@H]21	3.52	2.37	18.9	3.42	2.74 µM	3.71 µM	3.81	11.2	3.45 µM	4.24 µM	1.83 µM	0.399 µM	6.56	1.45	1.4	1.53	1.78	0.33	1.57	1.55 µM
O=S(=O)(CCCl)c1ccc(Cl)cc1	25.6	12	98.1	19.9	5.1 µM	11.6 µM	24	20.9	10.8 µM	12.4 µM	11.5 µM	2.8 µM	11.7	3.69	1.91	2.43	6.4	2.95	2.22	2.92 µM
Cc1cc(N(CCC#N)CCC#N)ccc1/C=C(\NC(=O)/C=C/c1ccccc1)C(=O)NN	> 100	> 100	> 82.6	> 100	> 100 µM	> 100 µM	> 100	> 100	> 100 µM	> 100 µM										
O=C1OCC2=C1C(c1ccccc1)c1cc3c(cc1N2CCO)OCO3 (stereo unspecified)	> 50	> 50	> 50	> 50	> 50 µM	> 50 µM	> 50	> 50	> 50 µM	> 50 µM	9.91 µM	3.09 µM	8.28	3.12	7	2.18	2.07	4.54	4.38	2.96 µM
CCC1=CC2CN(C1)Cc1c([nH]c3ccccc13)[C@@](C(=O)OC)(c1cc3c(cc1OC)N(C)[C@H]1[C@@](O)(C(=O)OC)[C@H](OC(C)=O)[C@]4(CC)C=CCN5CC[C@]31[C@@H]54)C2 (stereo partly specified)			11.8	50	50 µM and > 100 µM	50 µM and > 100 µM		20.2	50 µM and > 100 µM	50 µM and > 100 µM	0.0108 µM and 0.0162 µM	0.00931 µM and 0.0415 µM		0.00507	< 0.005	< 0.005	0.00735	0.00879	0.0341	0.277 µM and 0.416 µM
COc1cnc2c(c1)C(=O)c1c-2n(CCCN2CCN(C)CC2)c(=O)c2cc([N+](=O)[O-])ccc12	27.7	0.917	3.59	4.01	0.396 µM	1.38 µM	0.365	0.834	3.31 µM	1.26 µM	14.6 µM	0.226 µM	1.8	1.77	0.18	0.0227	0.135	0.0683	1.46	0.249 µM
O=C(N[C@@H](C[Se][Se]C[C@H](NC(=O)c1ccc(Br)cc1F)C(=O)O)C(=O)O)c1ccc(Br)cc1F	> 100	> 100	> 100	> 100	> 100 µM	> 100 µM	> 100	> 100	> 100 µM	> 100 µM	> 100 µM	> 100 µM	> 100	> 100	> 100	> 100	> 100	> 100	> 100	> 100 µM
